According to ChEMBL document CHEMBL5120787, “Selaginellin Inhibits Melanogenesis via the MAPK Signaling Pathway” (J Nat Prod, 2022):
Calls of active or inactive are those of the source. The calls are words filed in the database; no cut-off is given here.

How the values were obtained:
[1] = system: B16-F10; assay: Anti-melanogenic activity against mouse B16-F10 cells at 200 nM; assay type: functional, cell-based
[2] = system: MNT-1; assay: Anti-melanogenic activity against human MNT-1 cells cocultured with 24 hrs compound pretreated human fibroblast cells supernatant assessed as decrease in melanin content at 20 uM and measured after 48 hrs by Fontana-Masson staining based microscopic analysis; assay type: functional, cell-based; conditions: time 72.0 hrs
[3] = system: MNT-1; assay: Anti-melanogenic activity against human MNT-1 cells cocultured with 24 hrs compound pretreated human HaCaT cells supernatant assessed as decrease in melanin content at 20 uM and measured after 48 hrs by Fontana-Masson staining based microscopic analysis; assay type: functional, cell-based; conditions: time 72.0 hrs
[4] = system: MNT-1; assay: Anti-melanogenic activity against human MNT-1 cells cocultured with 24 hrs compound pretreated human fibroblast cells supernatant assessed as inhibition of LIF mRNA expression at 20 uM and measured after 48 hrs by qRT-PCR analysis; assay type: functional, cell-based; conditions: time 72.0 hrs
[5] = system: MNT-1; assay: Anti-melanogenic activity against human MNT-1 cells cocultured with 24 hrs compound pretreated human fibroblast cells supernatant assessed as inhibition of SCF mRNA expression at 20 uM and measured after 48 hrs by qRT-PCR analysis; assay type: functional, cell-based; conditions: time 72.0 hrs
[6] = system: MNT-1; assay: Anti-melanogenic activity against human MNT-1 cells cocultured with 24 hrs compound pretreated human HaCaT cells supernatant assessed as inhibition of LIF mRNA expression at 20 uM and measured after 48 hrs by qRT-PCR analysis; assay type: functional, cell-based; conditions: time 72.0 hrs
[7] = system: MNT-1; assay: Anti-melanogenic activity against human MNT-1 cells cocultured with 24 hrs compound pretreated human HaCaT cells supernatant assessed as inhibition of SCF mRNA expression at 20 uM and measured after 48 hrs by qRT-PCR analysis; assay type: functional, cell-based; conditions: time 72.0 hrs
[8] = system: MNT-1; assay: Anti-melanogenic activity against human MNT-1 cells cocultured with 24 hrs compound pretreated human fibroblast cells supernatant assessed as inhibition of LIF protein expression at 20 uM and measured after 48 hrs by Western blot analysis; assay type: functional, cell-based; conditions: time 72.0 hrs
[9] = system: MNT-1; assay: Anti-melanogenic activity against human MNT-1 cells cocultured with 24 hrs compound pretreated human fibroblast cells supernatant assessed as inhibition of SCF protein expression at 20 uM and measured after 48 hrs by Western blot analysis; assay type: functional, cell-based; conditions: time 72.0 hrs
[10] = system: MNT-1; assay: Anti-melanogenic activity against human MNT-1 cells cocultured with 24 hrs compound pretreated human HaCaT cells supernatant assessed as inhibition of LIF protein expression at 20 uM and measured after 48 hrs by Western blot analysis; assay type: functional, cell-based; conditions: time 72.0 hrs
[11] = system: MNT-1; assay: Anti-melanogenic activity against human MNT-1 cells cocultured with 24 hrs compound pretreated human HaCaT cells supernatant assessed as inhibition of SCF protein expression at 20 uM and measured after 48 hrs by Western blot analysis; assay type: functional, cell-based; conditions: time 72.0 hrs
[12] = system: B16-F10; assay: Cytotoxicity against mouse B16-F10 cells assessed as reduction in cell viability upto 10 uM measured after 48 to 72 hrs by MTT assay; assay type: toxicity, cell-based; conditions: b16-f10, 10 µM, time 48-72 hrs
[13] = system: Fibroblast; assay: Cytotoxicity against human Fibroblast assessed as reduction in cell viability upto 10 uM measured after 48 to 72 hrs by MTT assay; assay type: toxicity, cell-based; conditions: time 48-72 hrs
[14] = system: HaCaT; assay: Cytotoxicity against human HaCaT cells assessed as reduction in cell viability upto 10 uM measured after 48 to 72 hrs by MTT assay; assay type: toxicity, cell-based; conditions: time 48-72 hrs
[15] = system: MNT-1; assay: Cytotoxicity against human MNT-1 cells assessed as reduction in cell viability upto 10 uM measured after 48 to 72 hrs by MTT assay; assay type: toxicity, cell-based; conditions: mnt-1, 10 µM, time 48-72 hrs
[16] = Cytotoxicity against mouse Melan-a cells assessed as reduction in cell viability upto 10 uM measured after 48 to 72 hrs by MTT assay; assay type: toxicity, cell-based; conditions: time 48-72 hrs
[17] = system: B16-F10; assay: Anti-melanogenic activity against mouse B16-F10 cells assessed as decrease in melanin content at 25 to 100 nM incubated for 48 hrs by Fontana-Masson staining based inverted microscopic analysis; assay type: functional, cell-based; conditions: dose 25-100 nM
[18] = system: B16-F10; assay: Anti-melanogenic activity against mouse B16-F10 cells assessed as decrease in […] at 25 to 100 nM incubated for 48 hrs by RBFP based fluorescence microscope analysis; assay type: functional, cell-based; conditions: dose 25-100 nM
[19] = system: B16-F10; assay: Anti-melanogenic activity against mouse B16-F10 cells assessed as decrease in […] at 25 to 100 nM incubated for 48 hrs; assay type: functional, cell-based; conditions: dose 25-100 nM
[20] = molecular target: Mushroom tyrosinase (Agaricus bisporus, UniProt O42713+Q00024+C7FF04+C7FF05); assay: Inhibition of mushroom tyrosinase using L-DOPA as substrate preincubated with substrate for 10 mins followed by addition of enzyme and measured for 10 mins
[21] = system: B16-F10; assay: Anti-melanogenic activity against mouse B16-F10 cells at 50 nM; assay type: functional, cell-based
[22] = system: B16-F10; assay: Anti-melanogenic activity against mouse B16-F10 cells assessed as decrease in MITF protein level at 25 to 100 nM measured after 48 hrs by Western blot analysis; assay type: functional, cell-based; conditions: dose 25-100 nM
[23] = system: B16-F10; assay: Anti-melanogenic activity against mouse B16-F10 cells assessed as decrease in TYR protein level at 25 to 100 nM measured after 48 hrs by Western blot analysis; assay type: functional, cell-based; conditions: dose 25-100 nM
[24] = system: B16-F10; assay: Anti-melanogenic activity against mouse B16-F10 cells assessed as decrease in TRP1 protein level at 25 to 100 nM measured after 48 hrs by Western blot analysis; assay type: functional, cell-based; conditions: dose 25-100 nM
[25] = system: B16-F10; assay: Anti-melanogenic activity against mouse B16-F10 cells assessed as decrease in TRP2 protein level at 25 to 100 nM measured after 48 hrs by Western blot analysis; assay type: functional, cell-based; conditions: dose 25-100 nM
[26] = system: B16-F10; assay: Anti-melanogenic activity against mouse B16-F10 cells assessed as decrease in RAB27A protein level at 25 to 100 nM measured after 48 hrs by Western blot analysis; assay type: functional, cell-based; conditions: dose 25-100 nM
[27] = system: Melan-a; assay: Anti-melanogenic activity against mouse Melan-a cells assessed as decrease in alpha-MSH-induced Tyr activity at 0.01 to 10 uM incubated for 48 hrs; assay type: functional, cell-based; conditions: dose 0.01-10 µM
[28] = system: Melan-a; assay: Anti-melanogenic activity against mouse Melan-a cells assessed as decrease in alpha-MSH-induced melanin content at 0.01 to 10 uM incubated for 48 hrs by Fontana-Masson staining based inverted microscopic analysis; assay type: functional, cell-based; conditions: dose 0.01-10 µM
[29] = system: Melan-a; assay: Anti-melanogenic activity against mouse Melan-a cells assessed as alpha-MSH-induced decrease in Tyr activity at 0.01 to 10 uM incubated for 48 hrs by RBFP based fluorescence microscope analysis; assay type: functional, cell-based; conditions: dose 0.01-10 µM
[30] = system: B16-F10; assay: Inhibition of MAPK signaling pathway in mouse B16-F10 cells assessed as decrease in phosphorylated ERK at 25 to 100 nM for 48 hrs by Western blot analysis; assay type: cell-based; conditions: dose 25-100 nM
[31] = system: B16-F10; assay: Inhibition of MAPK signaling pathway in mouse B16-F10 cells assessed as decrease in phosphorylated JNK at 25 to 100 nM for 48 hrs by Western blot analysis; assay type: cell-based; conditions: dose 25-100 nM
[32] = system: B16-F10; assay: Inhibition of MAPK signaling pathway in mouse B16-F10 cells assessed as decrease in phosphorylated p38 at 25 to 100 nM for 48 hrs by Western blot analysis; assay type: cell-based; conditions: dose 25-100 nM
[33] = system: MNT-1; assay: Anti-melanogenic activity against UVB-induced human MNT-1 cells cocultured with 24 hrs human fibroblast cells supernatant assessed as decrease in melanin content at 10 uM incubated for 48 hrs by Fontana-Masson staining based microscopic analysis; assay type: functional, cell-based; conditions: time 72.0 hrs
[34] = system: MNT-1; assay: Anti-melanogenic activity against UVB-induced human MNT-1 cells cocultured with 24 hrs human HaCaT cells supernatant assessed as decrease in melanin content at 10 uM incubated for 48 hrs by Fontana-Masson staining based microscopic analysis; assay type: functional, cell-based; conditions: time 72.0 hrs
[35] = system: HaCaT; assay: Anti-melanogenic activity against UVB-induced human HaCaT cells assessed as inhibition of SCF mRNA expression at 10 uM incubated for 24 hrs by qRT-PCR analysis; assay type: functional, cell-based
[36] = system: HaCaT; assay: Anti-melanogenic activity against UVB-induced human HaCaT cells assessed as inhibition of LIF mRNA expression at 10 uM incubated for 24 hrs by qRT-PCR analysis; assay type: functional, cell-based
[37] = system: Fibroblast; assay: Anti-melanogenic activity against UVB-induced human fibroblast cells assessed as inhibition of SCF mRNA expression at 10 uM incubated for 24 hrs by qRT-PCR analysis; assay type: functional, cell-based
[38] = system: Fibroblast; assay: Anti-melanogenic activity against UVB-induced human fibroblast cells assessed as inhibition of LIF mRNA expression at 10 uM incubated for 24 hrs by qRT-PCR analysis; assay type: functional, cell-based
[39] = system: HaCaT; assay: Anti-melanogenic activity against UVB-induced human HaCaT cells assessed as decrease in SCF protein level at 10 uM incubated for 24 hrs by Western blot analysis; assay type: functional, cell-based
[40] = system: HaCaT; assay: Anti-melanogenic activity against UVB-induced human HaCaT cells assessed as decrease in LIF protein level at 10 uM incubated for 24 hrs by Western blot analysis; assay type: functional, cell-based
[41] = system: Fibroblast; assay: Anti-melanogenic activity against UVB-induced human fibroblast cells assessed as decrease in SCF protein level at 10 uM incubated for 24 hrs by Western blot analysis; assay type: functional, cell-based
[42] = system: Fibroblast; assay: Anti-melanogenic activity against UVB-induced human fibroblast cells assessed as decrease in LIF protein level at 10 uM incubated for 24 hrs by Western blot analysis; assay type: functional, cell-based
[43] = system: MNT-1; assay: Anti-melanogenic activity against human MNT-1 cells assessed as decrease in melanin content at 10 uM incubated for 48 hrs by Fontana-Masson staining based microscopic analysis; assay type: functional, cell-based
[44] = species: Danio rerio; assay: Inhibition of melanogenesis in zebra fish embryos assessed as decrease in melanin granule density at 10 to 50 uM measured upto 6 days by inverted microscope analysis; assay type: functional; conditions: dose 10-50 µM, time <= 6.0 day

O=c1cc(CO)occ1O
Activity [1]: Active

COc1ccc(-c2cc(=O)c3c(OC)c(OC)c(OC)c(OC)c3o2)cc1OC
Activity [2]: Active | Activity [3]: Active | Activity [4]: Active | Activity [5]: Active | Activity [6]: Active | Activity [7]: Active | Activity [8]: Active | Activity [9]: Active | Activity [10]: Active | Activity [11]: Active

O=C1C=CC(=C(c2ccc(O)cc2)c2c(-c3ccc(O)cc3)ccc(CO)c2C#Cc2ccc(O)cc2)C=C1
Activity [12]: Non-Toxic | Activity [13]: Non-Toxic | Activity [14]: Non-Toxic | Activity [15]: Non-Toxic | Activity [16]: Non-Toxic | Activity [17]: Active | Activity [18]: Active | Activity [19]: Active | IC50 [20]: 9.24 µM | Activity [21]: Active | Activity [22]: Active | Activity [23]: Active | Activity [24]: Active | Activity [25]: Active | Activity [26]: Active | Activity [27]: Active | Activity [28]: Active | Activity [29]: Active | inhibition [30]: Active | inhibition [31]: Active | inhibition [32]: Active | Activity [33]: Active | Activity [34]: Active | Activity [35]: Active | Activity [36]: Active | Activity [37]: Active | Activity [38]: Active | Activity [39]: Active | Activity [40]: Active | Activity [41]: Active | Activity [42]: Active | Activity [43]: Active

NC(=S)Nc1ccccc1
inhibition [44]: Active
